Where no end group is shown, it is not given here.
Key:
[1] = tested on: human mesenchymal stem cells, osteoblasts, keratinocytes, and HeLa cells; conditions: cited from earlier work
Source text: (§1) Herein we report that hBD2 can be used as a systemically administered anti-inflammatory biological. hBD2 is well-tolerated, both in vitro, and in vivo. […] After su ...

[2] = tested on: intestinal epithelial cells; conditions: cited from earlier work
Source text: as §1

[3] = tested on: BALB/cByJ mice with TNBS colitis; experiment: TNBS colitis model; format: in vivo, mouse; conditions: hBD2 0.1 mg/kg s.c. once a day
Procedure: The TNBS colitis study was performed by Farma-Cros Ibérica according to directive 86/609 EEC and approved by Novozymes science ethics committee. Male BALB/cByJ mice were used (Janvier) and each group consisted of 15 animals. Animal allocation to all experimental groups was done in a randomized manner. Colitis was induced on day 0 by intracolonic (distal) administration of trinitrobenzene sulfonic acid (TNBS), 1 mg/mouse in 50% ethanol under mild anesthesia (ketamine/xylazine). Treatment of the animals started on day 0 after induction of colitis. All compounds were applied s.c. Mice received PBS (TNBS control), Prednisolone (10 mg/kg), or hBD2 0.1 mg/kg), respectively. In the TNBS control group as well as in the Prednisolone group, 2 animals had to be sacrificed before the end of the experiment. All other animals were sacrificed on day 10. Daily clinical assessment was carried out to calculate a validated clinical DAI ranging from 0 to 4 according to the following parameters: body weight loss, presence or absence of rectal bleeding, stool consistency.
(§2) Sections of the colon were taken from each animal and preserved in neutral buffered formaline for subsequent histological analysis. Sections were stained using haematoxylin and eosin for further scoring.

[4] = tested on: C57BL/6 mice with DSS colitis; experiment: DSS colitis model; format: in vivo, mouse; conditions: 0.1 mg/kg s.c. once a day
Procedure: The DSS colitis study was performed by Farma-Cros Ibérica according to directive 86/609 EEC and approved by Novozymes science ethics committee. 7–8 weeks old male C57BL/6 mice were used (Charles River) and each group consisted of 10 animals. Animal allocation to all experimental groups was done in a randomized manner. Colitis was induced by supplementing the drinking water with 2% dextran sodium sulfate (DSS, 30–50 kDA, MP Biomedicals) for 7 days. On day 1 all mice were weighed and the drinking bottle was filled with the DSS solution, this solution was replaced on day 3 and 5. On day 8 the remaining solution was discarded and replaced with autoclaved water. Mice were divided into 3 groups. One group received PBS as sham treatment intravenously. One group received on day 1, 4, and 8, 300 μg/mouse of a mouse anti-TNF-α antibody (αTNF, Ramcon) intraperitoneally. The animals in the other group were dosed s.c. with 0.1 mg/kg hBD2 once a day, starting at day 1 until day 10. Animals were euthenized on day 10. Daily clinical assessment was carried out to calculate a validated clinical disease activity index (DAI) ranging from 0 to 4 according to the following parameters: body weight loss, presence or absence of rectal bleeding, stool consistency. One mouse in the DSS control group had to be euthanized before the end of the study.
as §2

[5] = tested on: SCID mice with CD4+/CD25− T cell transfer colitis; experiment: T cell transfer colitis model; format: in vivo, mouse
Procedure: This study was performed by the Department of Biomedical Science at the University of Catania according to directive 86/609 EEC and approved by Novozymes science ethics committee. 8 weeks old female BALB/c and C.B-17 female SCID mice were purchased from Harlan (Italy). Colitis was induced in severe combined immunodeficiency (SCID) mice by transplantation of CD4^+/CD25^− T cells from the BALB/c mice. Briefly, lymphomonocytes isolated from spleen or lymph nodes from BALB/c mice were subjected to negative selection of CD4^+ T cells. Afterwards, CD4^+/CD25^+ cells were positively isolated by binding to the beads from the CD4^+ T cell suspensions and the CD4^+/CD25^− were collected from supernatant. […] CD4^+/CD25^− cells were intraperitoneally injected to SCID mice at a concentration of 500,000 cells in a final volume of 0.2 ml RPMI 1640. Sham treated animals (n = 6) received 0.2 ml pure RPMI 1640. Diseased mice were randomized divided into 4 groups (n = 11) and treated once daily by s.c. application of PBS (vehicle), hBD2 (0.1 and 1 mg/kg, respectively) or 0.3 mg/kg Dexamethasone (Dexa., applied intraperitoneally). Treatments started 7 days post T cell transfer and continued daily for 86 days. Animals were weighed three times a week and monitored twice a week starting from day 42 for the clinical status, summarized as DAI. The DAI included body weight loss, stool consistency, and the presence of blood at the rectum. One animal in the vehicle and one in the Dexamethasone treated groups had to be sacrificed before the end of the study. At the end of the study, animals were sacrificed and the colon was removed and carefully cleaned for further analysis. First, the colon was weighed then a section from the middle was removed and fixed for pathologic survey. The rest of the colon (5 cm) was used to quantify the activity of myeloperoxidase in the tissue.
Myeloperoxidase activity was performed on 5 cm of colon previously frozen at −80°C. Colon was homogenized in 0.5% of HETAB dissolved in 10 mM of Phosphate-Citrate Buffer (pH 7.0) to enable the release of MPO enzyme from the neutrophil granules. Homogenated samples after three freeze-thaw cycles were spun at 3,000 × g at 4°C for 30 min. Pellets were resuspended in 0.5% HETAB in 10 mM Phosphate-Citrate Buffer and spun again at 3,000 × g at 4°C for 30 min. 500 ul of supernatant were delivered into a vial along with 500 ul of TMB in Phosphate-Citrate Buffer containing Perborate Sodium. Changes in absorbance at 620 and 450 nm were read by a spectrophotometer (IRIS). Peroxidase enzyme diluted in 0.5% HETAB in 10 mM Phosphate-Citrate Buffer and H2O was used as standard. Two-fold dilutions of standard were prepared at the highest concentration of 50 pg/ml. Reagents and samples were kept refrigerated. Substrate solution was prepared just before the assay. MPO activity expresses the amount of enzyme that is able to degrade […] of peroxide/min and it is expressed as U/g tissue weight.
as §2

[6] = hBD2 1 mg/kg s.c. daily, n = 11

For “human β-defensin 2 (GIGDPVTCLKSGAICHPVFCPRRYKQIGTCGLPGTKCCKKP; not fully specified; ends and bridges not checked) [hBD2, Recombinant human β-defensin 2 expressed in E. coli as his-tagged thioredoxin fusion, cleaved and purified, natural tertiary structure]”, the Cytotoxic effects [1] is given as “without observing cytotoxic effects”, the Tolerability [2] is given as “well-tolerated by intestinal epithelial cells” and the “Microscopic analysis of the colon (mucosa)” value ([3]; TNBS) is given as “nearly normal mucosa”. For the same substance, the Weight change ([3]; TNBS 1 mg/mouse, n = 15) was “trended toward increased weight gain from day 1–7”, the Colon weight ([3]; TNBS, n = 15) was “significantly reduced colon weight” and the “Macroscopic score of colon” value ([3]; TNBS, n = 15) was “significantly improved”. For the same substance, the “Microscopic score of colon” value ([3]; TNBS, n = 15) was “significantly improved”, the “Outcome of DSS colitis” value ([4]; day 1-10, 2% DSS 7 days, n = 10) was “significant improvement of colitis” and the “Therapeutic effect compared with anti-TNF-α antibody (300 μg/mouse i.p. day 1, 4, 8)” value ([4]; 2% DSS) was “superior to anti-TNF-α treatment”. The “Histology score of the colon (mucosal damage)” value ([4]; 2% DSS, end of experiment, n = 10) was “significantly reduced mucosal damage”, the DAI ([4]; 2% DSS, n = 10) was “improved the DAI” and the Weight change ([4]; 2% DSS, n = 10) was “prevented excessive weight loss”. The “Outcome of T cell mediated colitis” value ([5]; hBD2 0.1 mg/kg s.c. daily, n = 11) was “did not improve the outcome of T cell mediated colitis”, the “Histological analysis of colon” value ([5]; hBD2 1 mg/kg s.c. daily) was “less signs of inflammation and tissue disruption” and the Weight change ([5]; hBD2 1 mg/kg s.c. daily from day 7 after transfer, n = 11) was “less weight loss”. The Colon weight ([5]; hBD2 1 mg/kg s.c. daily, end of experiment, n = 11) was “significantly reduced the colon weight”, the DAI [5, 6] was “improved DAI” and the Stool score [5, 6] was “Same trait was observed for the stool score”. The Colonic myeloperoxidase activity ([5]; hBD2 s.c. daily (0.1 or 1 mg/kg), end of experiment) was “Only a minor effect”.

Source: article PMC7006816, “Human β-Defensin 2 Mediated Immune Modulation as Treatment for Experimental Colitis” (Frontiers in Immunology, 2020)
